Values quoted from earlier work in US6967090B2, “Nucleic acid and protein sequences of bovine epidermal growth factor” (Her Majesty the Queen in right of Canada, as represented by …, priority 2001, dated 2005).

Assays:
[1] = daily, 100 μg/kg body weight for nine days; U.S. Pat. No. 5,753,622
enteric infections = settings: oral administration; Buret et al., 1997
rotavirus = settings: piglets infected with rotavirus; Zijlstra et al., 1994
[2] = test system: jejunal brush-border membranes; settings: rodent
gut cells = settings: piglet; WO 88/04180
gastric acid secretion = settings: Hollenberg and Gregory 1980
EGF receptor = EGF receptor (Homo sapiens, UniProt P00533); settings: Tadaki and Niyogi, 1993

For “EGF: 6 kDa polypeptide composed of 53 amino acids; species of origin not stated in the cited studies”, the weight gain [1] is given as “enhances weight gain”, the “rate of enteric infections” value (enteric infections) is given as “reduces the rate of enteric infections” and the “reduction in weight gain caused by infection” value (enteric infections) is given as “prevents the reduction in weight gain caused by infection”. For the same substance, the intestinal functions (rotavirus) was “improves intestinal functions”, the “electrolytes, glucose and proline transport” value [2] was “increases electrolytes, glucose and proline transport” and the “lactase and alkaline phosphatase activities” value (gut cells) was “without any marked effect”. The “sucrase and maltase activity” value (gut cells) was “enhancing both sucrase and maltase activity”.
For “human EGF, lacking the last five amino acids on the COOH end: truncated human EGF lacking the last five amino acids on the COOH end (NSDSECPLSHDGYCLHDGVCMYIEALDKYACNCVVGYIGERCQYRDLK; not fully specified; Epidermal growth factor; UniProt P01133 971-1018, looked up, fragment)”, the “capacity to inhibit gastric acid secretion” value (gastric acid secretion) is listed as “retains its capacity to inhibit gastric acid secretion”.
For “human EGF: human EGF variant with tyrosine replaced by phenylalanine at position 13 (NSDSECPLSHDGFCLHDGVCMYIEALDKYACNCVVGYIGERCQYRDLKWWELR; not fully specified; Epidermal growth factor; UniProt P01133 971-1023, looked up, variant Y13F)”, the “effect of substitution on binding to receptor” value (EGF receptor) is given as “little effect on the binding”.
